{"source": "patent US10272056B2", "about": "“Treatment for mitochondrial diseases” (The George Washington University a Congressionally …, priority 2015, dated 2019)", "key": {"[1]": {"test_system": "E17.5 hippocampal neurons", "assay": "Cellular viability of neurons exposed to NaBt", "assay_type": "cell-based", "conditions": "2 mM NaBt"}, "PC12-ND6 cells [2]": {"test_system": "PC12-ND6 cells", "assay": "Cell viability by live-cell confocal microscopy (Nuclear-ID stain)", "assay_type": "cell-based", "conditions": "5 mM NaBt, three days", "description": "FIG. 4A-4E are images from microscopy and graphs showing NaBt dose-dependent acetylation and cellular toxicity in PC12-ND6 cells and embryonic E17.5 hippocampal neurons. (A) Confocal micrographs of PC12-ND6 cells (referred to as ND6) grown in the absence or presence of NaBt for three days and labeled with an anti-acetylated Lys antibody (AcLys; green). Scale bar represents 10 μm. […] Results are expressed as relative fluorescence intensity±S.D. (n=250 cells per NaBt concentration; * p=0.0001). (C) Effect of NaBt on PC12-ND6 cell viability. […] Mean±SEM (n=250 cells for each experimental condition; * p=0.0001). (D) Confocal micrographs of NaBt dose-dependent acetylation in E17.5 hippocampal neurons (AcLys; green). Scale bar represents 10 μm.\nSodium butyrate increases protein acetylation in a dose-dependent manner without inducing cellular toxicity. A dose response analysis was performed to determine the optimal concentration of sodium butyrate (NaBt) for inducing maximal acetylation levels with minimal cellular toxicity. PC12-ND6 cells were treated with different concentrations of NaBt (2 mM, 5 mM, and 10 mM) for three days before assessing the degree of acetylated lysine residues by immunocytochemistry and cell viability by live-cell confocal microscopy using the Nuclear-ID™ stain."}, "[3]": {"test_system": "healthy and MELAS fibroblasts", "assay": "Dose-dependent studies for optimal safe concentrations", "assay_type": "cell-based, human", "conditions": "three days of treatment", "description": "Experimental approaches. Five distinct molecular tools were used to investigate mitochondrial biogenesis: 1) the mitochondrial-specific dyes, MitoTracker® Green (MTG) and MitoTracker® Red (MTR); 2) the mito-GFP or mito-dsRed vector to fluorescently label mitochondria; 3) antibodies against mtDNA, COXVα, or SOD2; 4) the fluorescent PicoGreen® dye labeling mtDNA; and 5) quantitative PCR to determine mtDNA copy number.\nButyrates rescue the mitochondrial mass, morphology, networking, membrane potential, and cellular ATP levels in MELAS fibroblasts. Skin fibroblasts from two MELAS patients and from a healthy subject as a control were used. Dose-dependent analyses of butyrates to determine their best concentrations for eliciting an optimal mitochondrial response without cellular toxicity was performed. Healthy and MELAS fibroblasts were treated with PBS, NaBt (2.5 mM), TBN (1.5 mM), or AN9 (300 μM) for three days before labeling with the MTG dye for live cell confocal analysis."}, "PC12-ND6 cells [4]": {"test_system": "PC12-ND6 cells", "assay": "Neurite outgrowth with dbcAMP", "assay_type": "cell-based", "protocol": "FIG. 13A-13E are images from microscopy and graphs showing that the timing of NaBt treatment is critical for enhancing neuronal differentiation of PC12-ND6 cells upon sub-optimal neurotrophic cues. (A) Confocal micrographs of PC12-ND6 cells treated with dbcAMP alone or with NaBt (5 mM) in a simultaneous or sequential manner. Scale bar represents 5 μm. (B) Graph of neurite length. Mean±SEM (n=50 for each condition; compared to control (no NaBt) *p=0.0001 and **p=0.0009). (C) Confocal micrographs of PC12-ND6 cells treated with sub-optimal NGF concentration (10 ng/ml) alone or first NaBt (5 mM) in a simultaneous or sequential manner. Scale bar represents 10 μm. (D) Graph of average total neurite length. Mean±SEM (n=50 for each condition; compared to control *p=0.0001). (E) Graph of the frequency of total neurite length below and above 90 μm.\nThe timing of NaBt pre-treatment is critical for enhancing neuronal differentiation of PC12-ND6 cells and potentiating sub-optimal neurotrophic cues. We next investigated whether NaBt-mediated increase of mitochondrial biogenesis could potentiate subsequent sub-optimal neurotrophic cues to trigger effective neurite outgrowth in PC12-ND6 cells and whether a temporal window for NaBt responsiveness might exist. […]"}, "MELAS fibroblasts": {"test_system": "MELAS fibroblasts", "assay": "Relative cellular ATP levels (magnesium green dye)", "assay_type": "cell-based, human", "protocol": "FIG. 19 is a graph showing that NaBt augments the relative cellular ATP levels in MELAS fibroblasts. The relative cellular ATP content was examined by a fluorescent probe, magnesium green (Mg Gr). MELAS fibroblasts were treated for 6 and 24 hours with NaBt (2.5 m M) before being labeled with Mg-Gr.\nTo assess relative cellular ATP levels in live MELAS fibroblasts, the fluorescent magnesium green (Mg-Gr) dye, which has been successfully employed in live patient fibroblasts, was used. Fluorescence emission from the Mg-Gr dye is directly proportional to the concentration of intracellular free Mg2+ concentration. Since the affinity of Mg2+ for ATP is about ten times higher than its affinity for ADP or AMP, the fluorescence intensity is inversely correlated with the intracellular levels of ATP. A time course exposure to NaBt ([…]) was performed using MELAS fibroblasts from one patient that has been comprehensively evaluated in terms of mitochondrial mass, mitochondrial membrane potential, and mitochondrial dynamics and networking (FIGS. 17 and 18). […] Thus, butyrates augment the functional mitochondrial mass in dermal MELAS fibroblasts, thereby reversing their deficits in mitochondrial mass and bioenergetics capacity."}, "PC12-ND6 cells [5]": {"test_system": "PC12-ND6 cells", "assay": "mtDNA replication (PicoGreen staining, quantitative PCR)", "assay_type": "cell-based", "conditions": "confirmed by quantitative PCR", "description": "FIG. 11A-11D are images from microscopy and graphs showing NaBt promotes mtDNA replication via the NRF-1/Tfam axis. (A) Confocal analysis of mtDNA foci; scale bar=5 (B) Quantitative analysis of mtDNA copy number by PCR; *p<0.001. (C, D) Quantitative immunoblot analysis of NRF-1 and Tfam; *p<0.001.\nNaBt enhances mtDNA replication via the PGC1α-mediated NRF-1/Tfam axis. It was investigated whether NaBt enhanced mtDNA replication using the PicoGreen® dye to label mtDNA. PC12-ND6 cells were transfected with the mito-dsRed vector prior to NaBt treatment followed by PicoGreen® staining. […] To corroborate enhanced mitochondrial biogenesis, two key target genes of PGC1α were examined, the NRF-1 transcription factor and its direct target gene Tfam, both essential for mitochondrial biogenesis. […] The findings confirm the NaBt-mediated modulation of mitochondrial biogenesis and mtDNA replication in neuronal cells."}}}
{"molecule": "CCCC(=O)[O-].[Na+]", "note": "[NaBt, sodium butyrate]", "values": [{"measurement": "cellular viability", "setting": "[1]", "result": "without affecting cellular viability"}, {"measurement": "cell death", "setting": "PC12-ND6 cells [2]", "result": "negligible cell death"}, {"measurement": "optimal safe concentration for eliciting maximal mitochondrial biogenesis without cellular toxicity", "setting": "[3]", "result": 2.5, "unit": "mM"}, {"measurement": "neuritogenesis upon co-addition", "setting": "PC12-ND6 cells [4]; NaBt 5 mM and dbcAMP 1 mM added together", "result": "severely dampened"}, {"measurement": "neurite length", "setting": "PC12-ND6 cells [4]; NaBt pre-treatment three days at highest dose, then dbcAMP 1 mM 24 hours", "result": 50, "unit": "μm"}, {"measurement": "relative cellular ATP levels", "setting": "MELAS fibroblasts; 24 hours NaBt 2.5 mM", "result": "became more accentuated"}, {"measurement": "relative cellular ATP levels", "setting": "MELAS fibroblasts; first 24 hours of NaBt (2.5 mM) treatment", "result": "steady increase in relative cellular ATP levels"}, {"measurement": "relative cellular ATP levels", "setting": "MELAS fibroblasts; six hours NaBt 2.5 mM", "result": "increase in relative cellular ATP levels"}, {"measurement": "mtDNA foci", "setting": "PC12-ND6 cells [5]", "result": "increased number of mtDNA foci"}]}
